Measurements: patent US4812473A, “1,5-Disubstituted imidazoles as inhibitors of juvenile hormone” (Earth Chemical Co., Ltd., priority 1986, dated 1989)

What was measured:
[1] = tested on: 4th-instar household silkworm larvae; test: Anti-JH Activity Test II: anti-JH activity value (ED50); format: in vivo, Bombyx mori; conditions: 4th-instar larvae, dropwise application
Method: (§1) The compound (test preparation) of the present invention diluted with acetone to the predetermined concentration was applied dropwise, in an amount of 1 to 4 μper larva, to the abdomen and the back of third- or fourth-instar larvae (those living for 0 to 8 hours after ecdysis) of household silkworms (Bombyx mori) raised in a room and fed on mulberry leaves. Immediately after treatment, the larvae were placed into a plastics case and reared by being fed on mulberry leaves until they started spinning cocoons. The anti-JH activity was evaluated in terms of the percentage (%) of presence of larvae (premature larvae) which began to spin cocoons at the 4th-instar stage without undergoing the 5th-instar moult. The test larvae treated with each test preparation in each group numbered 20. The test larvae in the control group treated with acetone in lieu of the test compound all commenced cocooning after the 5th-instar moult.
After the test compound diluted to the predetermined concentration was applied dropwise to 4th-instar household silkworm larvae in the same manner as in Anti-JH Activity Test I as described above, the larvae thus treated were reared until they started cocooning. The number of larvae which began to cocoon at the 4th-instar stage without undergoing the 5th-instar moult were counted to determine the percentage (%) of presence of larvae (premature larvae). Then the concentration of test preparation which induced 50% presence was determined and indicated as an anti-JH activity value (ED50).

[2] = tested on: household silkworms (Bombyx mori) larvae; test: Anti-JH Activity Test I: activity to induce premature metamorphosis; format: in vivo
Method: as §1

anti-JH activity = test: Inhibition of the anti-JH activity of the compound of Example 1 by methoprene, a JH-active substance; conditions: in vivo
Method: Investigation was conducted to determine whether the activity of the foregoing compound of the invention can be inhibited by methoprene which is a JH-active substance. […] [Anti-JH Activity Test II]

SMILES	ED50 (anti-JH activity value, 50% presence of premature larvae) [1] [μg/larva]	also measured
CC(C)=CCC/C(C)=C/c1cncn1C1CCCCC1 [Example 13, 1-cyclohexyl-5-[(E)-2,6-dimethyl-1,5-heptadienyl]imidazole]	6.6	–
CC(C)=CCC/C(C)=C/c1cncn1CC(C)C [Example 9, 1-isobutyl-5-[(E)-2,6-dimethyl-1,5-heptadienyl]imidazole]	1.8	–
CCCn1cncc1/C=C(\C)CCC=C(C)C [Example 4, 1-propyl-5-[(E)-2,6-dimethyl-1,5-heptadienyl]imidazole]	3.5	–
CC(C)=CCC/C(C)=C/c1cncn1CCC(C)C [Example 11, 1-isoamyl-5-[(E)-2,6-dimethyl-1,5-heptadienyl]imidazole]	3.5	–
CC(C)=CCC/C(C)=C/c1cncn1C [Example 2, 1-methyl-5-[(E)-2,6-dimethyl-1,5heptadienyl]-imidazole]	17.5	–
CCCCn1cncc1/C=C(\C)CCC=C(C)C [Example 5, 1-butyl-5-[(E)-2,6-dimethyl-1,5-heptadienyl]imidazole]	3.1	–
CC(C)CCCC(C)Cc1cncn1Cc1ccccc1 (stereo not drawn) [Example 1, 1-benzyl-5-(2,6-dimethylheptyl)imidazole]	1.4	Activity to induce premature metamorphosis ([2]; 3rd-instar larvae, dosage 0.5 μg/larva): 10%; Activity to induce premature metamorphosis ([2]; 3rd-instar larvae, dosage 1 μg/larva): 70%; Activity to induce premature metamorphosis ([2]; 3rd-instar larvae, dosage 2 μg/larva): 100%; Activity to induce premature metamorphosis ([2]; 4th-instar larvae, dosage 1 μg/larva): 20%; Activity to induce premature metamorphosis ([2]; 4th-instar larvae, dosage 2 μg/larva): 100%; Activity to induce premature metamorphosis ([2]; 4th-instar larvae, dosage 10 μg/larva): 100%; anti-JH activity (in words) ([2]; conclusion from Table 1): had an anti-JH activity
CCC(C)n1cncc1/C=C(\C)CCC=C(C)C (stereo not drawn) [Example 10, 1-sec-butyl-5-[(E)-2,6-dimethyl-1,5-heptadienyl]imidazole]	1.9	–
COC(C)(C)CCC[C@H](C)C/C=C/C(C)=C/C(=O)OC(C)C (racemic) [methoprene]	–	inhibition by methoprene of the activity of the compound of the invention (Example 1) (anti-JH activity): completely inhibited
CCCCCn1cncc1/C=C(\C)CCC=C(C)C [Example 6, 1-amyl-5-[(E)-2,6-dimethyl-1,5-heptadienyl]imidazole]	2.4	–
CCn1cncc1/C=C(\C)CCC=C(C)C [Example 3, 1-ethyl-5-[(E)-2,6-dimethyl-1,5-heptadienyl]imidazole]	5.8	–
CC(C)=CCC/C(C)=C/c1cncn1C(C)C [Example 8, 1-isopropyl-5-[(E)-2,6-dimethyl-1,5-heptadienyl]imidazole]	6.4	–
CC(C)=CCC/C(C)=C/c1cncn1C1CCCC1 [Example 12, 1-cyclopentyl-5-[(E)-2,6-dimethyl-1,5-heptadienyl]imidazole]	3.6	–
CCCCCCn1cncc1/C=C(\C)CCC=C(C)C [Example 7, 1-hexyl-5-[(E)-2,6-dimethyl-1,5-heptadienyl]imidazole]	4.2	–
